These results are taken from patent US7541331B2, “Surfactant treatment regimen” (Discovery Laboratories, Inc., priority 2005, dated 2009).

In this data set the test system is premature neonates. The experiment in a line: Pilot phase 2 open study of lucinactant delivered as an aerosol via nCPAP for prevention of RDS. Particulars: in vivo. As to the method:
This example provides a protocol for administration of lucinactant as an aerosol via nCPA to premature infants. This protocol has been used in a pilot phase 2, open study to evaluate the feasibility, safety, and tolerability of lucinactant delivered as an aerosol via nCPAP for the prevention of RDS in premature neonates.
Lucinactant was administered using an approved vibrating machine device (Aeroneb-Pro® or equivalent) and delivered via nCPAP within 30 minutes of birth. In a first treatment group, 20 mg/ml of lucinactant was administered within the first 30 minutes of life continually over three hours. Up to three retreatments were permitted over a 48 hour period, with each treatment separated by at least 3 hours (from end of previous treatment). In a second treatment group, 20 mg/ml of lucinactant was administered within the first 30 minutes of life continually over three hours. Up to three retreatments were permitted over a 48 hour period, with each treatment separated by at least one hours (from end of previous treatment).
Qualified premature neonates were sequentially enrolled and stratified by gestational age (stratum 1:30-32 completed weeks followed by stratum 2:28-29 completed weeks) into the first treatment regimen group (3 hours on aerosol treatment/3 hours off aerosol treatment) and received aerosolized lucinactant via nCPAP. Safety and tolerability data were evaluated after enrollment of every five neonates. Once enrollment in the first treatment group was completed, neonates were sequentially enrolled and stratified into the second treatment group (3 hours on aerosol treatment/1 hours off aerosol treatment). All neonates enrolled were evaluated through 28 days of age.

Turning to lucinactant, the “adverse effects considered related to both study drug and the device” value was 35.3%; the “adverse effects considered related to study drug” value stood at 47.1%; the “adverse effects considered related to the device” value came to 11.8%; the incidence of apnea is recorded as 94.1%. For the same substance, the incidence of hypocalcemia is on record as 29.4%; the “incidence of oxygen saturation decreased” value was found to be 70.6%; the “incidence of patent ductus arteriosus” value worked out at 35.3%; the “safety and tolerability of treatment” value is “generally safe and well tolerated”. The “serious adverse effects considered related to the device” value is on record as “Two”, the “total adverse effects reported” value turned out to be 83 and the “total serious adverse effects reported” value stood at 5.
